Patent publication US6831190B1, “Guanidinomethyl cyclohexane carboxylic acid ester derivatives” (Teikoku Chemical Industries Co., Ltd., priority 1994, dated 2004)

Tests used:
Assay type in all cases: cell-based
[1] = tested on: Bacillus subtilis ATCC 6633; assay: MIC, standard method of Japanese Chemotherapy Academy; settings: for MIC against bacillus subcillus ATCC 6633: standard method of Japanese Chemotherapy Academy
Method: (§1) 1. Minimum Inhibitory Concentration (MIC) was measured in accordance with the standard method of Japanese Chemotherapy Academy (Chemotherapy, 29: 76-79, 1981).
(§2) And MIC of the compounds of Example 3, 36, 8, 14, 17, 21, 41 and 45 were measured.

[2] = tested on: Escherichia coli NIH JC-2; assay: as above; settings: for MIC: Objected Strain 3: Escherichia coli NIH JC-2
Method: as §1

[3] = tested on: Helicobacter pylori ATCC 43629; assay: MIC, agar plating dilution (standard method of Japanese Chemotherapy Academy); settings: Objected Strain 2: Helicobacter pylori ATCC 43629
Method: (§3) 1. Minimum Inhibitory Concentration (MIC) was measured in accordance with the standard method of Japanese Chemotherapy Academy (Chemotherapy, 29: 76-79, 1981). Sensitivity was measured with an agar plating dilution using Brain-Heart Infusion agar (Difco Co.) which was added 0.1% of cyclodextrin. […] of the solutions of the compounds which were obtained in examples of the present invention was prepared by dissolving in dimethylsulfoxide. […] Each of 1 ml of those prepared solutions was dispensed in share, after sterilization, 9 ml of sensitivity measuring medium which is kept at 50° C. was added to each, and they were sufficiently mixed. The mixture was used as a plate for measuring sensitivity. Brain Heart Infusion agar medium (Difco Co.), which was added 0.1% of cyclodextrin, was used as bacteria growing medium, and was cultured under microair at 37° C. for three days, and the number of bacteria thereof was adjusted to about 106/ml. This was used as a bacterial solution for inoculation. The medium was painted in each square about 2 cm with nichromic line loop. The medium was cultured under microair for three days at 37° C.

[4] = tested on: Helicobacter pylori ATCC 43504; assay: as above; settings: Objected Strain 1: Helicobacter pylori ATCC 43504
Method: as §3

[5] = tested on: Helicobacter pylori No. 4; assay: MIC, agar plating dilution, clinical segregation strain; settings: Strain 7: Helicobacter pylori No. 4
Method: (§4) Minimum Inhibitory Concentration (MIC) was measured in accordance with the standard method of Japanese Chemotherapy Academy (Chemotherapy, 29: 76-79, 1981). Sensitivity was measured with an agar plating dilution using Brain-Heart Infusion agar (Difco Co.) which was added 0.1% of cyclodextrin. […] of the solutions of the compounds which were obtained in examples of the present invention was prepared by dissolving in dimethylsulfoxide. […] Each of 1 ml of those prepared solutions was dispensed in share, after sterilization, 9 ml of sensitivity measuring medium which is kept at 50° C. was added to each, and they were sufficiently mixed. The mixture was used as a plate for measuring sensitivity. Brain Heart Infusion agar medium (Difco Co.), which was added 0.1% of cyclodextrin, was used as bacteria growing medium, and was cultured under microair at 37° C. for three days, and the number of bacteria thereof was adjusted to about 106/ml. This was used as a bacterial solution for inoculation. The medium was painted in each square about 2 cm with nichromic line loop. The medium was cultured under microair for three days at 37° C. […] The each result is shown at Table 4.

[6] = tested on: Helicobacter pylori No. 3; assay: as above; settings: Strain 6: Helicobacter pylori No. 3
Method: as §4

[7] = tested on: Helicobacter pylori No. 1; assay: as above; settings: Strain 4: Helicobacter pylori No. 1
Method: as §4

[8] = tested on: Helicobacter pylori No. 2; assay: as above; settings: Strain 5: Helicobacter pylori No. 2
Method: as §4

[9] = tested on: Staphylococcus aureus No. 2 (MRSA); assay: MIC, standard method of Japanese Chemotherapy Academy; settings: Strain 14: Staphylococcus aureus No. 2 (MRSA)
Method: as §1, §2

[10] = tested on: Staphylococcus aureus 209PJC; assay: as above; settings: Strain 11: Staphylococcus aureus 209PJC
Method: as §1, §2

Compound	MIC against bacillus subcillus ATCC 6633 [1] [µg/mL]	MIC against Escherichia coli. NHJC-2 ([2]; standard method of Japanese Chemotherapy Academy) [µg/mL]	MIC [2] [µg/mL]	MIC [3] [µg/mL]	MIC [4] [µg/mL]	MIC [5] [µg/mL]	MIC [6] [µg/mL]	MIC [7] [µg/mL]	MIC [8] [µg/mL]	MIC ([1]; Strain 13: Bacillus subtilis ATCC 6633) [µg/mL]	MIC [9] [µg/mL]	MIC [10] [µg/mL]
4-[4-(trans-4-guanidinomethyl cyclohexylcarbonyloxy)phenyl]benzoate.methansulfonate [Example 28]	> 25	> 25										
Cl.N=C(N)NC[C@H]1CC[C@H](C(=O)Oc2ccc(-c3ccccc3)cc2)CC1 [Compound 1, trans-4-guanidinomethyl cyclohexane carboxylic acid (4-phenylphenylester)hydrochloride, reference compound]			>25	0.78	3.13	0.78	0.39	0.39	1.56			
CCOC(=O)c1ccc(-c2ccc(OC(=O)[C@H]3CC[C@H](CNC(=N)N)CC3)cc2)cc1.Cl [Example 2, trans-4-guanidinomethyl cyclohexane carboxylic acid [4-(4-ethoxycarbonylphenyl)phenylester].hydrochloride]			>25	0.78	1.56	0.78	0.39	0.39	1.56			
COc1ccc(COC(=O)c2ccc(-c3ccc(OC(=O)[C@H]4CC[C@H](CNC(=N)N)CC4)cc3)cc2)cc1.Cl [Example 18, trans-4-guanidinomethyl cyclohexane carboxylic acid [4-[4-(4-methoxybenzyloxy carbonyl)phenyl]phenylester].hydrochloride]	25		>25	0.78	0.78	0.39	0.20	0.20	0.78			
Cl.N=C(N)NC[C@H]1CC[C@H](C(=O)Oc2ccc(-c3ccc(C(=O)OCc4ccccc4F)cc3)cc2)CC1 [Example 19, trans-4-guanidinomethyl cyclohexane carboxylic acid [4-[4-(2-fluorobenzyloxycarbonyl)phenyl]phenylester].hydrochloride]	> 25		>25	0.39	0.39	0.39	0.20	0.20	0.78			
CC(C)OC(=O)c1ccc(-c2ccc(OC(=O)[C@H]3CC[C@H](CNC(=N)N)CC3)cc2)cc1.Cl [Example 20, trans-4-guanidinomethyl cyclohexane carboxylic acid [4-(4-isopropyloxycarbonyl)phenylphenylester].hydrochloride]			>25	0.78	0.78	0.78	0.39	0.39	1.56			
Cl.N=C(N)NC[C@H]1CC[C@H](C(=O)Oc2ccc(-c3ccc(C(=O)OCC4CCCCC4)cc3)cc2)CC1 [Example 23, trans-4-guanidinomethyl cyclohexane carboxylic acid [4-(4-cyclohexylmethyloxy carbonylphenyl)phenylester].hydrochloride]	25		>25	0.39	0.20	0.39	0.20	0.20	0.39			
Cc1ccc(COC(=O)c2ccc(-c3ccc(OC(=O)[C@H]4CC[C@H](CNC(=N)N)CC4)c(Br)c3)cc2)cc1.Cl [Example 24, trans-4-guanidinomethyl cyclohexane carboxylic acid[2-bromo-4-[4-(4-methylbenzyloxycarbonyl)phenyl]phenylester].hydrochloride]	> 25		>25	0.78	0.39	0.39	0.20		0.39			
Cc1ccc(COC(=O)c2ccc(-c3ccc(OC(=O)[C@H]4CC[C@H](CNC(=N)N)CC4)cc3)cc2)c(C)c1.Cl [Example 25, trans-4-guanidinomethyl cyclohexane carboxylic acid[4-[4-(2,4-dimethylbenzyloxycarbonyl)phenyl]phenylester].hydrochloride]	> 25		>25	0.78	0.39	0.39	0.20	0.39	0.39			
Cl.N=C(N)NC[C@H]1CC[C@H](C(=O)Oc2ccc(-c3ccc(C(=O)OCCc4ccccc4)cc3)cc2)CC1 [Example 26, trans-4-guanidinomethyl cyclohexane carboxylic acid[4-[4-(2-phenylethyloxycarbonyl)phenyl]phenylester].hydrochloride]	> 25		>25	0.78	0.39	0.20	0.10	0.20	0.39			
CCOC(=O)c1ccc(Oc2ccc(OC(=O)[C@H]3CC[C@H](CNC(=N)N)CC3)cc2)cc1.Cl [Example 36, trans-4-guanidinomethyl cyclohexane carboxylic acid[4(4-ethoxycarbonylphenyloxy)phenylester].hydrochloride]			>25	6.25	6.25					25	6.25	6.25
Cl.N=C(N)NC[C@H]1CC[C@H](C(=O)Oc2ccc(-c3ccc(C(=O)OCCCc4ccccc4)cc3)cc2)CC1 [Example 39, trans-4-guanidinomethyl cyclohexane carboxylic acid[4-[4-(3-phenylpropyloxycarbonyl)phenyl]phenylester].hydrochloride]			>25	0.78	0.39	0.39	0.20	0.39	0.78			
Cl.N=C(N)NC[C@H]1CC[C@H](C(=O)Oc2ccc(-c3ccc(C(=O)OCCCOc4ccc(F)cc4)cc3)cc2)CC1 [Example 40, trans-4-guanidinomethyl cyclohexane carboxylic acid[4-[4-[3-(4-fluorophenyloxy)propyloxycarbonyl]phenyl]phenylester].hydrochloride]			>25	0.39	0.20	0.39	0.10	0.20	0.78			
CCCC[C@H]1CC[C@H](COC(=O)c2ccc(-c3ccc(OC(=O)[C@H]4CC[C@H](CNC(=N)N)CC4)cc3)cc2)CC1.Cl [Example 42, trans-4-guanidinomethyl cyclohexane carboxylic acid[4-[4-(trans-4-n-butylcyclohexylmethloxycarbonyl)phenyl]phenylester].hydrochloride]			>25	1.56	0.39	0.39	0.20	0.39	1.56			
